Source: patent US11396517B1, “Exo-aza spiro inhibitors of menin-MLL interaction” (Janssen Pharmaceutica NV, priority 2017, dated 2022)
Read-outs that look alike come from different tables or passages of the source.

Legend:
menin = molecular target: T1, menin (Homo sapiens, UniProt O00255, T541A); experiment: Menin/MLL homogenous time-resolved fluorescence (HTRF) assay; type: binding
T1 construct: Menin (a.a. 1-610-6×his tag)
T1 sequence (O00255 with tags, fused parts or gaps T541A): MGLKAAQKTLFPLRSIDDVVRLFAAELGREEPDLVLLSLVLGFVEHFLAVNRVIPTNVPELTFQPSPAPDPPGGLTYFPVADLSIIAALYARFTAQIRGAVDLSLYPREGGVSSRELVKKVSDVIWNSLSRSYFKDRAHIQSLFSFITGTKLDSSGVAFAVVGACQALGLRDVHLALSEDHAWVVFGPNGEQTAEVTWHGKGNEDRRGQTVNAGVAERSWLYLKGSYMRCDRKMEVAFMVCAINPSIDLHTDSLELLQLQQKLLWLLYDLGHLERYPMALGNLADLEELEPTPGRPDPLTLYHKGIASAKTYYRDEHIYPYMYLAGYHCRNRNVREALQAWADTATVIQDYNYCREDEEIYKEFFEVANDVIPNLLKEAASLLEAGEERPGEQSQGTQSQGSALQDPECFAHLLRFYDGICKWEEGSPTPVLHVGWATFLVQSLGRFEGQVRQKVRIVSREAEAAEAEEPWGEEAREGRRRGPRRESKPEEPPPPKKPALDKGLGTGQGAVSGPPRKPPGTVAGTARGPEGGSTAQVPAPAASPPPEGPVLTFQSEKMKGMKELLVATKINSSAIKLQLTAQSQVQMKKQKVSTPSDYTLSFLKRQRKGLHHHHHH
Summary of the method: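 Displacement of 75 nM FITC-MBM1 from terbium-cryptate-labeled His-tagged menin 1-610 ([…]) was read as the 520/490 nm HTRF ratio. Compound (11-point, 3-fold series) got 5 min with menin before peptide, then 15 min at ambient; 0.5% DMSO, Tris pH 7.5.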

MOLM14 = experiment: Proliferation assay B (spheroid assay) MOLM14; type: cell-based, human; conditions: MOLM14 cells, confluence at day 8, absolute IC50, read-out: (3b) Spheroid assay MOLM14 (IC50(μM)) Assay B
Protocol: 3b) Proliferation Assay B
The anti-proliferative effect of menin/MLL protein/protein interaction inhibitor test compounds was assessed in human leukemia cell lines. The cell lines MV-4-11 and MOLM14 harbor MILL translocations and express the MILL fusion proteins MLL-AF4 and MLL-AF9, respectively, as well as the wildtype protein from the second allele. […] K562 was used as a control cell line containing two MLL wildtype alleles in order to exclude compounds that display general cytotoxic effects.
MV-4-11 and MOLM14 were cultured in RPMI-1640 (Sigma Aldrich) supplemented with 10% fetal bovine serum (HyClone), 2 mM L-glutamine (Sigma Aldrich) and 50 μg/ml gentamycin (Gibco). K562 were propagated in RPMI-1640 (Sigma Aldrich) supplemented with 20% fetal bovine serum (HyClone), 2 mM L-glutamine (Sigma Aldrich) and 50 μg/ml gentamycin (Gibco).
In order to assess the anti-proliferative effects, 1,500 MV-4-11, 300 MOLM14 cells or 750 K562 cells were seeded in 200 μl media per well in 96-well round bottom, ultra-low attachment plates (Costar, catalogue number 7007). Cell seeding numbers were chosen based on growth curves to ensure linear growth throughout the experiment. Test compounds were added at different concentrations and the DMSO content was normalized to 0.3%. Cells were incubated for 8 d at 37° C. and 5% CO2. Spheroid like growth was measured in real-time by live-cell imaging (IncuCyteZOOM, Essenbio, 4× objective) acquiring images at day 8. Confluence (%) as a measure of spheroid size was determined using an integrated analysis tool.
In order to determine the effect of the test compounds over time, the confluence in each well as a measure of spheroid size, was calculated. Confluence […] at the beginning of the experiment (t=0) was used as baseline for the calculation.
Absolute IC50 values were calculated as percent change in confluence as follows:
LC=Low Control: cells treated with 1 μM of the cytotoxic agent staurosporin
HC=High Control: Mean confluence (%) (DMSO treated cells) % Effect=100−(100*(Sample−LC)/(HC−LC))
To determine the IC50 a curve is fitted to the plot of % Effect vs Log 10 compound concentration using a sigmoidal fit with a variable slope and fixing the maximum to 100% and the minimum to 0%.

[1] = location 2, read-out: (2) location 2 Menin HTRF assay (IC50 (nM))
[2] = location 1, read-out: (2) location 1 Menin HTRF assay (IC50 (nM))

IC50 (menin; [1]) [nM] | IC50 (MOLM14; Homo sapiens, MOLM-14, 192 h) [µM] | IC50 (MOLM14) [µM] | IC50 (menin; [2]) [nM] | SMILES
63.6 | > 3.75 |  |  | CS(=O)(=O)NCc1ccc(NC2CC3(CCN(c4ncnc5sc(CC(F)(F)F)cc45)C3)C2)cc1 (single isomer, unassigned) [Compound 367]
2 |  | 2.54 |  | CNC(=O)c1ccc(NC2CC3(CCN(c4ncnc5sc(CC(F)(F)F)cc45)C3)C2)cc1 (mixture of isomers) [Compound 329]
14.5 | > 3.75 |  |  | NC(=O)Cc1ccc(NC2CC3(CCN(c4ncnc5sc(CC(F)(F)F)cc45)C3)C2)cc1 (mixture of isomers) [Compound 348]
23.9 | > 3.75 |  |  | CNC(=O)c1ccc(N[C@H]2CC[C@@]3(CCN(c4ncnc5sc(CC(F)(F)F)cc45)C3)C2)cc1 (stereo in doubt) [Compound 135]
7.1 | 2.47 |  |  | CS(=O)(=O)N1CCC(C#N)(c2ccc(NC3CC4(CCN(c5ncnc6sc(CC(F)(F)F)cc56)C4)C3)cc2)CC1 (mixture of isomers) [Compound 340]
7510 |  | > 3.75 |  | O=C(c1ccc(NC2CC3(CCN(c4ncnc5sc(CC(F)(F)F)cc45)C3)C2)cc1)N1CCS(=O)(=O)CC1 (single isomer, unassigned) [Compound 412]
 |  | 2.94 |  | N#Cc1ccc(NC2CC3(CCN(c4ncnc5sc(CC(F)(F)F)cc45)C3)C2)nc1 (single isomer, unassigned) [Compound 174]
235 |  | > 3.75 |  | CN(C)CCNC(=O)c1ccc(NC2CC3(CCN(c4ncnc5sc(CC(F)(F)F)cc45)C3)C2)nc1 (single isomer, unassigned) [Compound 253]
13.1 | 1 |  |  | CC(CN1CCN(S(C)(=O)=O)CC1)NC(=O)c1ccc(NC2CC3(CCN(c4ncnc5sc(CC(F)(F)F)cc45)C3)C2)cc1 (mixture of isomers) [Compound 192]
21.1 | 3.55 |  |  | FC(F)(F)Cc1cc2c(N3CCC4(CC(Nc5ccc(CN6CCOCC6)cc5)C4)C3)ncnc2s1 (mixture of isomers) [Compound 350]
3.5 | 0.56 |  |  | FC(F)(F)Cc1cc2c(N3CC[C@@]4(CC[C@@H](Nc5ccc(-c6cc[nH]n6)cc5)C4)C3)ncnc2s1 (stereo in doubt) [Compound 139]
3.7 |  | 1.69 |  | CNC(=O)c1ccc(NC2CC3(CCN(c4ncnc5sc(CC(F)(F)F)cc45)C3)C2)cn1 (single isomer, unassigned) [Compound 217]
5.7 | > 3.75 |  |  | CNC(=O)c1ccc(N[C@H]2CC[C@]3(CCN(c4ncnc5sc(CC(F)(F)F)cc45)C3)C2)cc1 (stereo in doubt) [Compound 137]
7.3 | 2.11 |  |  | O=C1NCCN1c1ccc(NC2CC3(CCN(c4ncnc5sc(CC(F)(F)F)cc45)C3)C2)cc1 (mixture of isomers) [Compound 346]
1460 | > 3.75 |  |  | CNC(=O)Cn1cc(NC2CC3(CCN(c4ncnc5sc(CC(F)(F)F)cc45)C3)C2)cn1 (single isomer, unassigned) [Compound 355]
0.7 | 1.13 |  |  | COCCNC(=O)c1ccc(NC2CC3(CCN(c4ncnc5sc(CC(F)(F)F)cc45)C3)C2)cc1 (stereo not shown) [Compound 85]
2680 |  | > 3.75 |  | CNC(=O)Cn1cc(NC2CC3(CCN(c4ncnc5sc(CC(F)(F)F)cc45)C3)C2)cn1 (single isomer, unassigned) [Compound 356]
3.9 | 2.3 |  |  | FC(F)(F)Cc1cc2c(N3CC[C@]4(CC[C@@H](Nc5ccc(-c6cc[nH]n6)cc5)C4)C3)ncnc2s1 (stereo in doubt) [Compound 141]
27.9 | > 3.75 |  |  | Nc1nc(N2CCC3(CC(Nc4ccc5[nH]c(=O)[nH]c5c4)C3)C2)c2cc(CC(F)(F)F)sc2n1 (single isomer, unassigned) [Compound 382]

IC50 (menin; [1]) [nM] | IC50 (MOLM14; Homo sapiens, MOLM-14, 192 h) [µM] | IC50 (MOLM14) [µM] | IC50 (menin; [2]) [nM] | SMILES
489 |  | > 3.75 |  | CNC(=O)c1ccc(NC2CC3(CCN(c4ncnc5sc(CC(F)(F)F)cc45)C3)C2)cc1C (stereo not shown) [Compound 237]
1020 | > 3.75 |  |  | COC[C@H]1COCCN1C(=O)c1ccc(NC2CC3(CCN(c4ncnc5sc(CC(F)(F)F)cc45)C3)C2)cc1 (single isomer, unassigned) [Compound 407]
1200 | > 3.75 |  | 1160 | CS(=O)(=O)N[C@H]1CC[C@H](NC2CC3(CCN(c4ncnc5sc(CC(F)(F)F)cc45)C3)C2)CC1 (single isomer, unassigned) [Compound 103]
146 |  |  |  | O=c1[nH]c2ccc(N[C@@H]3CCC4(C3)CN(c3ncnc5sc(CC(F)(F)F)cc35)C4)cc2o1 (single isomer, unassigned) [Compound 296]
3890 |  |  |  | O=C(NC1CCC2(C1)CN(c1ncnc3sc(CC(F)(F)F)cc13)C2)c1cccc(-c2cc[nH]n2)c1 (stereo not shown) [Compound 30]
 |  |  | 555 | CC(C)CN(C(=O)CCN1CCOCC1)C1CC2(CCN(c3ncnc4sc(CC(F)(F)F)cc34)C2)C1 (mixture of isomers) [Compound 52]
1020 |  |  |  | COc1nc(N2CCC3(CC(Nc4ccccc4)C3)C2)c2cc(CC(F)(F)F)sc2n1 (single isomer, unassigned) [Compound 266]
> 10000 |  |  |  | CN(C(=O)c1ccccc1)C1CC2(CCN(c3ncnc4sc(CC(F)(F)F)cc34)C2)C1 (mixture of isomers) [Compound 260]
400 |  |  |  | Cc1cccc(NC2CC3(CCN(c4ncnc5sc(CC(F)(F)F)cc45)C3)C2)c1 (mixture of isomers) [Compound 166]
234 |  |  |  | CN(C1CC2(CCN(c3ncnc4sc(CC(F)(F)F)cc34)C2)C1)S(=O)(=O)c1cccc(C#N)c1 (mixture of isomers) [Compound 425]
1010 |  |  | 1250 | N#CCc1cccc(C(=O)NC2CC3(CCN(c4ncnc5sc(CC(F)(F)F)cc45)C3)C2)c1 (stereo not shown) [Compound 8]
84.6 |  |  |  | CNC(=O)c1ccc(NC2CC3(CCN(c4ncnc5sc(CC(F)(F)F)cc45)C3)C2)cc1F (single isomer, unassigned) [Compound 204]
265 |  |  |  | N#CC1(c2ccc(NC3CC4(CCN(c5ncnc6sc(CC(F)(F)F)cc56)C4)C3)cc2)CC1 (single isomer, unassigned) [Compound 171]
127 |  |  |  | N#CCc1cccc(NC2CC3(CCN(c4ncnc5sc(CC(F)(F)F)cc45)C3)C2)c1 (mixture of isomers) [Compound 173]
155 |  |  |  | Fc1ccccc1NC1CC2(CCN(c3ncnc4sc(CC(F)(F)F)cc34)C2)C1 (mixture of isomers) [Compound 156]
529 |  |  |  | Cc1nc(N2CCC3(CC(NCc4ccccc4)C3)C2)c2cc(CC(F)(F)F)sc2n1 (single isomer, unassigned) [Compound 261]
> 10000 |  |  |  | O=C(NC1CCC2(CCN(c3ncnc4sc(CC(F)(F)F)cc34)C2)C1)c1ccccc1 (stereo not shown) [Compound 128]
85.9 |  |  |  | O=c1[nH]c2ccc(NC3CC4(CCN(c5ncnc6sc(CC(F)(F)F)cc56)C4)C3)cc2o1 (single isomer, unassigned) [Compound 324]
137 |  |  |  | CNC(=O)c1ccc(NC2CCC3(C2)CN(c2nc(NC)nc4sc(CC(F)(F)F)cc24)C3)cc1 (stereo not shown) [Compound 123]
